Each structure is given as a SMILES string. In brackets after ≈: the same amount, converted by molar mass.

We go through two compounds from US6914045B2, “Glycopeptide antibiotics” (Wyeth Holdings Corporation, priority 2001, dated 2005).

Assay in all cases: in vitro antibacterial evaluation, MIC by broth dilution
Common to all, as to type: cell-based
(In general: Dilution methods test growth across graded concentrations, often in twofold steps.)

One assay deals with Escherichia coli. The note with it: 18 hours at 35° C.; for MIC Escherichia coli (GC 4559): strain GC 4559; for MIC Escherichia coli (GC 4560): strain GC 4560. Summed up: (§1)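 Read-out: the lowest concentration at which the test strain fails to grow. Serial dilutions (64-0.06 μg/mL) in Muller-Hinton II […], 5×10^5 CFU/mL inoculum, NCCLS M7-A2 procedure.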
The subject of a further assay is Enterococcus sp. The note with it: broth dilution, 18 hours at 35° C. Summed up: as §1
A further assay has as its system Staphylococcus sp. Particulars: broth dilution, 18 hours at 35° C. Summed up:
as §1

Setting [1] is: Enterococcus faecalis (ATCC 29212).
[2] abbreviates: Enterococcus faecalis (GC 2242).
Setting [3] is: Enterococcus faecalis (GC 4552).

On to `CC(c1ccccc1)C1NC(=O)CNC(=O)C(CO)NC(=O)C(C(O)C2CNC(=N)N2C2OC(CO)C(O)C(O)C2O)NC(=O)C(C(O)C2CNC(=N)N2)NC(=O)C(Cc2ccc(OC3OC(COC(=O)CCC4CCCC4)C(OC4OC(CO)C(O)C(O)C4O)C(O)C3O)cc2)NC1=O` (centres unmarked) [Example 100b], for which the “MIC Escherichia coli (GC 4559)” value in the assay with Escherichia coli was more than 128 µg/mL. Further, the “MIC Escherichia coli (GC 4560)” value in the assay on Escherichia coli is 0.5 µg/mL (≈ 0.352 µM). The “MIC Enterococcus faecalis (ATCC 29212)” value in the assay with Enterococcus sp. (setting [1]) and against Enterococcus sp. (strain ATCC 29212) was 8 µg/mL (≈ 5.64 µM) in each case. Further, the “MIC Enterococcus faecalis (GC 2242)” value in the assay with Enterococcus sp. (setting [2]) and in the assay with Enterococcus sp. (strain GC 2242) was 8 µg/mL (≈ 5.64 µM) each time. The “MIC Enterococcus faecalis (GC 4552)” value against Enterococcus sp. (setting [3]) and against Enterococcus sp. (strain GC 4552) was 8 µg/mL (≈ 5.64 µM) throughout. For the same compound, the “MIC Coagulase Negative Staphylococcus (GC 4537)” value in the assay on Staphylococcus sp. and in the assay with Staphylococcus sp. (strain GC 4537) was 2 µg/mL (≈ 1.41 µM) throughout. In addition, the “MIC Coagulase Negative Staphylococcus (GC 4538)” value against Staphylococcus sp. and with Staphylococcus sp. (strain GC 4538) was 1 µg/mL (≈ 0.704 µM) throughout. For the same compound, the “MIC Coagulase Negative Staphylococcus (GC 4547)” value in the assay on Staphylococcus sp. and in the assay with Staphylococcus sp. (strain GC 4547) was 1 µg/mL (≈ 0.704 µM) in each case. Moreover, the “MIC Staphylococcus aureus (ATCC 29213)” value in the assay on Staphylococcus sp. and in the assay on Staphylococcus sp. (strain ATCC 29213) was 2 µg/mL (≈ 1.41 µM) in each case. Besides, the “MIC Staphylococcus aureus (GC 1131)” value in the assay with Staphylococcus sp. and in the assay on Staphylococcus sp. (strain GC 1131) was 2 µg/mL (≈ 1.41 µM) each time. In addition, the “MIC Staphylococcus aureus (GC 4535)” value against Staphylococcus sp. and against Staphylococcus sp. (strain GC 4535) was 2 µg/mL (≈ 1.41 µM) in each case. Further, the “MIC Staphylococcus aureus-SMITH (GC 4536)” value against Staphylococcus sp. and against Staphylococcus sp. (strain GC 4536) was 2 µg/mL (≈ 1.41 µM) each time.
Regarding `CC(c1ccccc1)C1NC(=O)CNC(=O)C(CO)NC(=O)C(C(O)C2CNC(=N)N2C2OC(CO)C(O)C(O)C2O)NC(=O)C(C(O)C2CNC(=N)N2)NC(=O)C(Cc2ccc(OC3OC(CO)C(OC4OC(COC(=O)CCC5CCCC5)C(O)C(O)C4O)C(O)C3O)cc2)NC1=O` (centres unmarked) [Example 100c], the “MIC Escherichia coli (GC 4559)” value against Escherichia coli turned out to be 32 µg/mL (≈ 22.5 µM). Besides, in the assay on Escherichia coli, the “MIC Escherichia coli (GC 4560)” value is 0.5 µg/mL (≈ 0.352 µM). The “MIC Enterococcus faecalis (ATCC 29212)” value against Enterococcus sp. (setting [1]) and with Enterococcus sp. (strain ATCC 29212) was 4 µg/mL (≈ 2.82 µM) each time. Besides, the “MIC Enterococcus faecalis (GC 2242)” value in the assay with Enterococcus sp. (setting [2]) and with Enterococcus sp. (strain GC 2242) was 2 µg/mL (≈ 1.41 µM) in each case. The “MIC Enterococcus faecalis (GC 4552)” value in the assay on Enterococcus sp. (setting [3]) and against Enterococcus sp. (strain GC 4552) was 4 µg/mL (≈ 2.82 µM) throughout. For the same compound, the “MIC Coagulase Negative Staphylococcus (GC 4537)” value against Staphylococcus sp. and against Staphylococcus sp. (strain GC 4537) was 1 µg/mL (≈ 0.704 µM) throughout. Further, the “MIC Coagulase Negative Staphylococcus (GC 4538)” value in the assay on Staphylococcus sp. and with Staphylococcus sp. (strain GC 4538) was 1 µg/mL (≈ 0.704 µM) in each case. The “MIC Coagulase Negative Staphylococcus (GC 4547)” value in the assay with Staphylococcus sp. and in the assay with Staphylococcus sp. (strain GC 4547) was 1 µg/mL (≈ 0.704 µM) each time. For the same compound, the “MIC Staphylococcus aureus (ATCC 29213)” value against Staphylococcus sp. and against Staphylococcus sp. (strain ATCC 29213) was 1 µg/mL (≈ 0.704 µM) in each case. Further, the “MIC Staphylococcus aureus (GC 1131)” value in the assay on Staphylococcus sp. and against Staphylococcus sp. (strain GC 1131) was 1 µg/mL (≈ 0.704 µM) in each case. Moreover, the “MIC Staphylococcus aureus (GC 4535)” value against Staphylococcus sp. and with Staphylococcus sp. (strain GC 4535) was 1 µg/mL (≈ 0.704 µM) throughout. For the same compound, the “MIC Staphylococcus aureus-SMITH (GC 4536)” value with Staphylococcus sp. and in the assay with Staphylococcus sp. (strain GC 4536) was 1 µg/mL (≈ 0.704 µM) in each case.
